These results are taken from ChEMBL document CHEMBL1142432 (J Med Chem, 2008).

The structures appear in SMILES notation. In brackets after ≈: the same amount, converted by molar mass.

Data set [1] has as its system Mycobacterium tuberculosis. Description: Antimycobacterial activity against Mycobacterium tuberculosis H37Rv. It is filed as functional.
A short description of data set [2]: Drug level in human lung epithelial lining fluid at 600 mg, po bid after 4 hrs. Format: ADME, organism-based. To be noted: read-out: Drug uptake.
A short description of data set [3]: Elimination half life in human. Format: ADME, organism-based. Conditions: in vivo.
A short description of data set [4]: Total clearance in human. Format: ADME, organism-based. Conditions: in vivo.
The subject of data set [5] is Canis familiaris. Put plainly: Toxicity in dog at 40 mg/kg, po for 30 days. It is filed as organism-based, Canis lupus familiaris. More on the design: dose 40 mg/kg, route oral. Conditions: in vivo, 720 h.
The species entered for the next data set is Homo sapiens. Put plainly: Nonrenal clearance in human. It is filed as ADME, organism-based. Conditions: in vivo.
The test system of the next data set is Plasma. Put plainly: Plasma concentration in human at 600 mg, po bid. Conditions: in vivo. It is filed as ADME, organism-based.
In data set [6] the target is T1, Amine oxidase [flavin-containing] A (Homo sapiens, UniProt P21397).
T1 sequence (P21397 whole entry): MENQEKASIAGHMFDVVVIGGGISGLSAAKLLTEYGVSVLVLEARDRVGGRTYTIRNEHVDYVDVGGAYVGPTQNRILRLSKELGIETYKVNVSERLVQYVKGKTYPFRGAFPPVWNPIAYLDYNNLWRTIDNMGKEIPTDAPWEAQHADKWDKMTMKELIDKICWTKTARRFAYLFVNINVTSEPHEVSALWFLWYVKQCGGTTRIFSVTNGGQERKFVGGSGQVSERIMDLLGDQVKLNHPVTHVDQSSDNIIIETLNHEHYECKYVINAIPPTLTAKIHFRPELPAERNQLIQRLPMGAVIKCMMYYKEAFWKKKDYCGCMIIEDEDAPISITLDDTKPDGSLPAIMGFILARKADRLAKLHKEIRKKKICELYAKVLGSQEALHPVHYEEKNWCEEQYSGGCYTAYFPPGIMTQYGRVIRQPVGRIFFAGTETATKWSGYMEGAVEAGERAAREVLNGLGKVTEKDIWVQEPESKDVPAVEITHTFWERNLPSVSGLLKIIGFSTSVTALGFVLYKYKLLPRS
Description: Inhibition of monoamine oxidase A.

Data set [7] in a line: Renal clearance in human. Format: ADME, organism-based, Kidney. Conditions: in vivo, read-out: CL_renal.
The test system of the next data set is Staphylococcus aureus. Description: Protection against methicillin-resistant Staphylococcus aureus infection in pneumonia patient. It is filed as functional.
The test system of data set [8] is Rattus norvegicus. Put plainly: Toxicity in rat at 20 mg/kg for 30 days. Set-up: dose 20 mg/kg. It is filed as organism-based. Conditions: in vivo, 720 h.
Data set [9] is described as follows: Drug level in human urine. It is filed as ADME, tissue-based. To be noted: read-out: Drug uptake.
Another data set relates to Enterococcus. Description: Protection against vancomycin-resistant Enterococcus infection in pneumonia patient. It is filed as functional.
The test system of data set [10] is Canis familiaris. Put plainly: Toxicity in dog at 20 mg/kg for 30 days. More on the design: dose 20 mg/kg. Format: organism-based, Canis lupus familiaris. To be noted: in vivo, 720 h.
The subject of data set [11] is Rattus norvegicus. Put plainly: Toxicity in rat at 50 mg/kg, po for 30 days. Conditions: in vivo, 720 h. It is filed as organism-based. More on the design: dose 50 mg/kg, route oral.
Data set [12] in a line: Aqueous solubility of the compound. Format: physicochemical.
Data set [13] concerns Canis familiaris. Put plainly: Toxicity in dog at 25 mg/kg for 30 days. Format: organism-based, Canis lupus familiaris. Set-up: dose 25 mg/kg. To be noted: in vivo, 720 h.
Data set [14] concerns Rattus norvegicus. Description: Toxicity in rat at 25 mg/kg for 30 days. It is filed as organism-based. Set-up: dose 25 mg/kg. Conditions: in vivo, 720 h.
The nature of data set [15]: Oral bioavailability in dog at 25 mg/kg. It is filed as ADME, organism-based, Canis lupus familiaris. Conditions: in vivo.

Broadly, the MIC is the lowest concentration found to suppress growth. `NNC(=O)c1ccncc1` [ISONIAZID]: inhibition of growth in data set [1] (MIC) required 0.2 µg/mL (≈ 1.46 µM).
By half-life is commonly meant how long it takes for the measured level to halve. A high value points to slow decline. In general, clearance refers to the volume of plasma or blood freed of the substance per unit of time. Higher therefore signals efficient removal. A word on the Ki: it is a dissociation constant, usually derived from enzyme kinetics or from competition with a known ligand. High values mean a looser hold on the target, low ones a stronger hold on the target. With `CC(=O)NC[C@H]1CN(c2ccc(N3CCOCC3)c(F)c2)C(=O)O1` [LINEZOLID], the concentration at 4 h in [2] was found to be 64.3 µg/mL. In data set [3], this compound had a half-life of 300 min. Further, the clearance in [4] worked out at 100 mL/min. Also, the Activity entry with Canis familiaris [5], with Rattus norvegicus [8], with Canis familiaris [10] and in the data set on Rattus norvegicus [11] was “Non-toxic” each time. In the data set filed under Homo sapiens, this compound gave a CL of 70 mL/min. In the data set with Plasma, this compound gave a Cp of 7.3 µg/mL. This compound also showed a Ki in data set [6] of 55 µM. Besides, the CL renal in [7] was found to be 30 mL/min. The Efficacy was 77% with Staphylococcus aureus and 88% with Enterococcus. Moreover, in [9], the dose excreted was determined as 20%.
Take `CN[C@H](CC(C)C)C(=O)N[C@H]1C(=O)N[C@@H](CC(N)=O)C(=O)N[C@H]2C(=O)N[C@H]3C(=O)N[C@H](C(=O)N[C@H](C(=O)O)c4cc(O)cc(O)c4-c4cc3ccc4O)[C@H](O)c3ccc(c(Cl)c3)Oc3cc2cc(c3O[C@@H]2O[C@H](CO)[C@@H](O)[C@H](O)[C@H]2O[C@H]2C[C@](C)(N)[C@H](O)[C@H](C)O2)Oc2ccc(cc2Cl)[C@H]1O` [VANCOMYCIN]: the Activity in the data set with Staphylococcus aureus worked out at 74%.
In general, solubility refers to the dissolved amount per volume that the medium holds. `CC(=O)NC[C@H]1CN(c2ccc(N3CCSCC3)c(F)c2)C(=O)O1` [SUTEZOLID] returned a solubility in data set [12] of 200 µg/mL (≈ 566 µM). For the same compound, the MIC in [1] was not above 0.125 µg/mL.
As a reminder, the bioavailability is the share of a dose that reaches the circulation, judged against a reference dose that is usually intravenous. Read a high bioavailability as much systemic uptake. In the case of `CC(=O)NC[C@H]1CN(c2ccc(N3CCN(C(=O)CO)CC3)c(F)c2)C(=O)O1` [EPEREZOLID], the Activity entry in the data set on Canis familiaris [13] and in the data set on Rattus norvegicus [14] was “Non-toxic” each time. The bioavailability in [15] stood at 100%.
